Results published in patent EP0973746B1, “SUBSTITUTED 3-CYANO QUINOLINES” (Wyeth Holdings Corporation, priority 1997, dated 1998).
Converted amounts (≈) assume the structure as drawn.

Assays:
HTB161 = assay: Inhibition of cancer cell growth as measured by cell number, HTB161; type: cell-based; conditions: Homo sapiens; cell number, Sulforhodamine B, 48 hours exposure; Table 4; read-out: IC50 HTB161
CCRF-CFM = assay: Inhibition of cancer cell growth as measured by cell number, CCRF-CFM; type: cell-based; conditions: Homo sapiens; cell number, Sulforhodamine B, 48 hours exposure; Table 7; read-out: IC50 CCRF-CFM
PC3 = assay: Inhibition of cancer cell growth as measured by cell number, PC3; type: cell-based; conditions: Homo sapiens, PC-3; cell number, Sulforhodamine B, 48 hours exposure; Table 7; read-out: IC50 PC3
A549 = assay: Inhibition of cancer cell growth as measured by cell number, A549; type: cell-based; conditions: Homo sapiens, A549; cell number, Sulforhodamine B, 48 hours exposure; Table 6; read-out: IC50 A549
SKBR3 = assay: Inhibition of cancer cell growth as measured by cell number, SKBR3; type: cell-based, human; conditions: Homo sapiens, SK-BR-3; cell number, Sulforhodamine B, 48 hours exposure; Table 7; read-out: IC50 SKBR3;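 note: SK-BR-3 cells were selected as a line overexpressing HER2/neu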
Source text: (§1) The cell lines were chosen since they overexpressed epidermal growth factor receptor (EGFR) (i.e. A431) or HER2/neu (SKBR3), or had little to no expression of the these receptors (SW620, LOX, MCF7).

MCF7 = assay: Inhibition of cancer cell growth as measured by cell number, MCF7; type: cell-based, human; conditions: Homo sapiens, MCF7, 48 h, cell number, Sulforhodamine B, 48 hours exposure; Table 5; read-out: IC50 MCF7;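 note: MCF7 was included as a line with little or no EGFR or HER2/neu expression, in contrast to the receptor-overexpressing lines of the panel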
Source text: as §1

A2780DDP = assay: Inhibition of cancer cell growth as measured by cell number, A2780DDP; type: cell-based; conditions: Homo sapiens; cell number, Sulforhodamine B, 48 hours exposure; Table 4; read-out: IC50 A2780DDP
A27805 = assay: Inhibition of cancer cell growth as measured by cell number, A27805; type: cell-based; conditions: Homo sapiens; cell number, Sulforhodamine B, 48 hours exposure; Table 4; read-out: IC50 A27805
[1] = target: recombinant human MEK 1 (MAPKK) and recombinant human ERK2 (MAPK); assay: Mitogen Activated Protein Kinase (MAPK) assay, two component coupled MEK 1 / ERK2; type: biochemical; conditions: separate entries for the same compound = evaluated more than one time;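 note: MEK 1-activated ERK2 phosphorylates MBP or Myc peptide with 33P-ATP, filter capture and scintillation counting, inhibitor preincubated with ERK2 30 min at 0 °C, inhibition relative to uninhibited control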
NEC = assay: Inhibition of cancer cell growth as measured by cell number, NEC; type: cell-based; conditions: Homo sapiens; cell number, Sulforhodamine B, 48 hours exposure; Table 6; read-out: IC50 NEC
CACO2 = assay: Inhibition of cancer cell growth as measured by cell number, CACO2; type: cell-based; conditions: Homo sapiens, Caco-2; cell number, Sulforhodamine B, 48 hours exposure; Table 5; read-out: IC50 CACO2
HL60 = assay: Inhibition of cancer cell growth as measured by cell number, HL60; type: cell-based; conditions: Homo sapiens, HL-60; cell number, Sulforhodamine B, 48 hours exposure; Table 7; read-out: IC50 HL60
CCL228 = assay: Inhibition of cancer cell growth as measured by cell number, CCL228; type: cell-based; conditions: Homo sapiens; cell number, Sulforhodamine B, 48 hours exposure; Table 5; read-out: IC50 CCL228
T47D = assay: Inhibition of cancer cell growth as measured by cell number, T47D; type: cell-based; conditions: Homo sapiens, cell number, Sulforhodamine B, 48 hours exposure, Table 6, read-out: IC50 T47D
LX1 = assay: Inhibition of cancer cell growth as measured by cell number, LX1; type: cell-based; conditions: Homo sapiens, LX-1; cell number, Sulforhodamine B, 48 hours exposure; Table 6; read-out: IC50 LX1
SW620 = assay: Inhibition of cancer cell growth as measured by cell number, SW620; type: cell-based, human; conditions: Homo sapiens, SW-620, 48 h, cell number, Sulforhodamine B, 48 hours exposure; Table 4; read-out: IC50 SW620;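 note: SW620 was included as a cell line with little or no EGFR or HER2/neu expression, in contrast to receptor-overexpressing lines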
Source text: as §1

DU145 = assay: Inhibition of cancer cell growth as measured by cell number, DU145; type: cell-based; conditions: Homo sapiens, DU-145; cell number, Sulforhodamine B, 48 hours exposure; Table 7; read-out: IC50 DU145
LNCAP = assay: Inhibition of cancer cell growth as measured by cell number, LNCAP; type: cell-based; conditions: Homo sapiens, cell number, Sulforhodamine B, 48 hours exposure, Table 7, read-out: IC50 LNCAP
A431 [2] = assay: Inhibition of cell growth by incorporation of [3H]-thymidine, A431; type: cell-based, human; conditions: Homo sapiens, A-431; [3H]-thymidine incorporation; A431; read-out: IC50 A431
LOX = assay: Inhibition of cancer cell growth as measured by cell number, LOX; type: cell-based, human; conditions: Homo sapiens, LOX, 48 h, cell number, Sulforhodamine B, 48 hours exposure; Table 6; read-out: IC50 LOX;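 note: LOX cells served as a line with low or absent EGFR and HER2/neu expression, in contrast to receptor-overexpressing lines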
Source text: as §1

COLO205 = assay: Inhibition of cancer cell growth as measured by cell number, COLO205; type: cell-based; conditions: Homo sapiens, COLO 205; cell number, Sulforhodamine B, 48 hours exposure; Table 4; read-out: IC50 COLO205
A431 [3] = assay: Inhibition of cancer cell growth as measured by cell number, A431; type: cell-based, human; conditions: Homo sapiens, A-431, 48 h, cell number, Sulforhodamine B, 48 hours exposure; Table 6; read-out: IC50 A431;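 note: human A431 line, picked because it overexpresses epidermal growth factor receptor (EGFR)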
Source text: as §1

LS174T = assay: Inhibition of cancer cell growth as measured by cell number, LS174T; type: cell-based; conditions: Homo sapiens, cell number, Sulforhodamine B, 48 hours exposure, Table 5, read-out: IC50 LS174T
MIP = assay: Inhibition of cancer cell growth as measured by cell number, MIP; type: cell-based; conditions: Homo sapiens; cell number, Sulforhodamine B, 48 hours exposure; Table 4; read-out: IC50 MIP
B7474 = assay: Inhibition of cancer cell growth as measured by cell number, B7474; type: cell-based; conditions: Homo sapiens; cell number, Sulforhodamine B, 48 hours exposure; Table 6; read-out: IC50 B7474
SW948 = assay: Inhibition of cancer cell growth as measured by cell number, SW948; type: cell-based; conditions: Homo sapiens, SW948; cell number, Sulforhodamine B, 48 hours exposure; Table 5; read-out: IC50 SW948
HCT15 = assay: Inhibition of cancer cell growth as measured by cell number, HCT15; type: cell-based; conditions: Homo sapiens, HCT-15; cell number, Sulforhodamine B, 48 hours exposure; Table 5; read-out: IC50 HCT15
CX1 = assay: Inhibition of cancer cell growth as measured by cell number, CX1; type: cell-based; conditions: Homo sapiens, CX-1; cell number, Sulforhodamine B, 48 hours exposure; Table 4; read-out: IC50 CX1

COc1cc2ncc(C#N)c(NC3CCCCC3)c2cc1OC [Example 38, 4-(Cyclohexyamino)-6,7-dimethoxy-3-quinolinecarbonitrile] gave an IC50 (HTB161) of 3.19 µg/mL (≈ 10.3 µM), an IC50 (CCRF-CFM) of 4.39 µg/mL (≈ 14.1 µM) and an IC50 (PC3) of 9.33 µg/mL (≈ 30 µM). It also gave an IC50 (A549) of 7.33 µg/mL (≈ 23.5 µM), an IC50 (SKBR3) of 7.14 µg/mL (≈ 22.9 µM) and an IC50 (MCF7) of 6 µg/mL (≈ 19.3 µM). The IC50 (A2780DDP) was 6.56 µg/mL (≈ 21.1 µM), the IC50 (A27805) was 4.58 µg/mL (≈ 14.7 µM) and the IC50 [1] was 45 µM. The IC50 (NEC) was 6.53 µg/mL (≈ 21 µM), the IC50 (CACO2) was 5.62 µg/mL (≈ 18 µM) and the IC50 (HL60) was 4.27 µg/mL (≈ 13.7 µM). For the same compound, the IC50 (CCL228) was 8.49 µg/mL (≈ 27.3 µM), the IC50 (T47D) was 5.98 µg/mL (≈ 19.2 µM) and the IC50 (LX1) was 7.52 µg/mL (≈ 24.2 µM). For the same compound, the IC50 (SW620) was 31.7 µg/mL (≈ 102 µM), the IC50 (DU145) was 5.15 µg/mL (≈ 16.5 µM) and the IC50 (LNCAP) was 4.58 µg/mL (≈ 14.7 µM). For the same compound, the IC50 (A431 [2]) was 35 µM, the IC50 (LOX) was 8.12 µg/mL (≈ 26.1 µM) and the IC50 (COLO205) was 6.43 µg/mL (≈ 20.6 µM). The IC50 (A431 [3]) was 4.73 µg/mL (≈ 15.2 µM), the IC50 (LS174T) was 5.37 µg/mL (≈ 17.2 µM) and the IC50 (MIP) was 7.75 µg/mL (≈ 24.9 µM). For the same compound, the IC50 (B7474) was 17 µg/mL (≈ 54.5 µM), the IC50 (SW948) was 10.4 µg/mL (≈ 33.5 µM) and the IC50 (HCT15) was 5.16 µg/mL (≈ 16.6 µM). The IC50 (CX1) was 5.62 µg/mL (≈ 18.1 µM).
